Measurements published in PubChem BioAssay (NCI).
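Following 48 hours of exposure in 96-well plates, responses at five concentrations were used to interpolate endpoints linearly. At the TGI there is no net growth.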

Key:
Experiment in all cases: DTP human tumour cell line panel, 48 h
M14 melanoma = tested on: M14 melanoma
NCI-H23 lung = tested on: NCI-H23 lung
SR leukemia = tested on: SR leukemia
HS 578T breast = tested on: HS 578T breast
SK-MEL-28 melanoma = tested on: SK-MEL-28 melanoma
HT29 colon = tested on: HT29 colon
ACHN renal = tested on: ACHN renal
SW-620 colon = tested on: SW-620 colon
U251 CNS = tested on: U251 CNS
CAKI-1 renal = tested on: CAKI-1 renal
OVCAR-5 ovarian = tested on: OVCAR-5 ovarian
SK-OV-3 ovarian = tested on: SK-OV-3 ovarian
TK-10 renal = tested on: TK-10 renal
MDA-MB-435 = tested on: MDA-MB-435
RPMI-8226 leukemia = tested on: RPMI-8226 leukemia
SF-268 CNS = tested on: SF-268 CNS
SNB-75 CNS = tested on: SNB-75 CNS
HCC-2998 colon = tested on: HCC-2998 colon
K-562 leukemia = tested on: K-562 leukemia

Row | SMILES | TGI (M14 melanoma) [µM] | TGI (NCI-H23 lung) [µM] | TGI (SR leukemia) [µM] | TGI (HS 578T breast) [µM] | TGI (SK-MEL-28 melanoma) [µM] | TGI (HT29 colon) [µM] | TGI (ACHN renal) [µM] | TGI (SW-620 colon) [µM] | TGI (U251 CNS) [µM] | TGI (CAKI-1 renal) [µM] | TGI (OVCAR-5 ovarian) [µM] | TGI (SK-OV-3 ovarian) [µM] | TGI (TK-10 renal) [µM] | TGI (MDA-MB-435) [µM] | TGI (RPMI-8226 leukemia) [µM] | TGI (SF-268 CNS) [µM] | TGI (SNB-75 CNS) [µM] | TGI (HCC-2998 colon) [µM] | TGI (K-562 leukemia) [µM]
1 | Cc1c(-c2ccc(O)cc2)n(CCCCCCNCCOC(=O)NCCCc2ccc(N(CCCl)CCCl)cc2)c2ccc(O)cc12 | 3 | 3.45 | 3.18 | 7.49 | 13.8 | 3.09 | 14.1 | 5.37 | 13.5 | 25.7 | 28.9 | 22.4 | 6.06 | 3.21 | 2.98 | 3.45 | 14.1 | 3.52 | 
2 | CC(=O)Oc1c(C)c2c(c3ncccc13)OC(C)C2 (centres undefined) | 28.5 | 32.9 | 22.7 | 59.4 | 26.8 | 36.8 | 24.5 | 27.2 | 28.8 | 27.8 | 31 | 54.2 | 49.2 | 19 | 45.1 | 28.8 | 28 | 28.7 | 35.5
3 | Cn1c2ccc([N+](=O)[O-])cc2c(=O)n1Cc1ccccc1F | > 100 | > 100 | > 100 | 82.8 | > 100 | > 100 | > 100 | > 100 | > 100 | > 100 | > 100 | > 100 | > 100 | > 100 | > 100 | > 100 | 70.2 | > 100 | > 100
4 | COc1ccccc1CCN1CCN(CCCc2ccccc2)CC1 | 76.4 |  | > 100 | > 100 | > 100 | > 100 | > 100 | > 100 | > 100 | > 100 | > 100 | > 100 | > 100 | > 100 | > 100 | > 100 | > 100 | > 100 | > 100
5 | C/C(=C\CO)CC/C=C(\C)CNc1c(F)c(F)c(F)c(F)c1F | > 100 | > 100 | 74.9 | 74.6 | 41.1 | 52.3 | > 100 | > 100 | 59.2 | > 100 | > 100 | > 100 | 85.7 | 53.8 | 43.8 | 67.3 | 66.3 | 59.8 | 92
6 | CSC1=C(C#N)C(=S)N=C(N)C1C(=O)Nc1ccc(C)cc1 (centres undefined) | > 100 | > 100 | > 100 | > 100 | > 100 | > 100 |  | > 100 | > 100 | > 100 | > 100 | > 100 | > 100 | > 100 | > 100 | > 100 | > 100 | > 100 | > 100
7 | CCN(CC)c1ccc2cc(C(N)=O)c(=N)oc2c1 | > 100 | > 100 | > 100 | 45.8 | > 100 | > 100 | > 100 | > 100 | > 100 | > 100 | > 100 | > 100 |  | > 100 | > 100 | > 100 | > 100 | 57.2 | > 100
8 | CS(=O)(=O)OCCCCOS(=O)(=O)CF | > 100 | > 100 | > 100 | > 100 | > 100 | > 100 | > 100 | > 100 | > 100 | > 100 | > 100 | > 100 | > 100 | > 100 | > 100 | > 100 | > 100 | > 100 | > 100
9 | O=C1N(C2CCCCC2)C(=O)N1C1CCCCC1 | 20.7 | 23.8 | 8.83 | 2.93 | 20.7 | 25.3 | 12 | 26.4 | 18.7 | 25.2 | 30.2 | 59.9 | 38.5 | > 81.4 | 0.935 | 40.2 | > 100 | > 47.3 | 13.4
10 | COc1cccc2c1C(=O)C1=C(C2=O)C(O)CC(C)(C)O1 (centres undefined) | > 100 | 74.5 | 46.3 | > 100 | > 100 | > 100 | > 100 | > 100 | > 100 | > 100 | > 100 | > 100 | > 100 | 35.2 | 60.4 | > 100 | > 100 | > 100 | 50.3
11 | C=Cc1nc2c(Cl)ncnc2n1Cc1ccccc1 | 15.7 | 11.6 | > 33.4 | 50.4 | 11.3 | 7.28 | 3.59 | 23.2 | 22.6 | 3.99 | 30.5 | 31 | 7.72 | 10.1 | 18.3 | 22.9 | 28.4 | 6.76 | > 40.1
12 | O=C1C=Cc2c(Br)sc(Br)c21 | 84.4 | > 100 | 75.2 | > 100 | 84.9 | 85.9 | 57.7 | 43.7 | 38.2 | 41.1 | > 100 | > 100 | 31.7 | 46.1 | 46.3 | > 100 | > 100 | 29.2 | 54.5
